Patent US9267122B2, “Modulation of phospholipase D for the treatment of neurodegenerative disorders” (THE TRUSTEES OF COLUMBIA UNIVERSITY IN THE CITY OF NEW YORK, priority 2009, dated 2016)
Entries after “also recorded” stand apart in the source; their conditions may differ.

Legend:
[1] = system: N2a cells expressing swAPP; test: Aβ secretion by N2a cells expressing swAPP (ELISA); type: cell-based
Method: N2a cells expressing swAPP after reaching confluence, were replaced with new media and treated either with vehicle (black) or FIPI (gray) for 6 hours. The media was collected and both Aβ40 (A) and Aβ42 (B) were measured by ELISA. n=6.

[2] = system: primary cortical neurons; test: Rescue of oAβ42-induced decrease in PIP2 levels in primary cortical neuronal cultures; type: cell-based, mice; settings: 750 nM FIPI pretreatment for 1 hour, then 200 nM oAβ42 for 2 hours; n=3
[3] = molecular target: T1, PLD1 (Homo sapiens, UniProt Q13393); settings: PLD1 versus PLD2; cited from earlier work
T1 sequence (Q13393 1-1074): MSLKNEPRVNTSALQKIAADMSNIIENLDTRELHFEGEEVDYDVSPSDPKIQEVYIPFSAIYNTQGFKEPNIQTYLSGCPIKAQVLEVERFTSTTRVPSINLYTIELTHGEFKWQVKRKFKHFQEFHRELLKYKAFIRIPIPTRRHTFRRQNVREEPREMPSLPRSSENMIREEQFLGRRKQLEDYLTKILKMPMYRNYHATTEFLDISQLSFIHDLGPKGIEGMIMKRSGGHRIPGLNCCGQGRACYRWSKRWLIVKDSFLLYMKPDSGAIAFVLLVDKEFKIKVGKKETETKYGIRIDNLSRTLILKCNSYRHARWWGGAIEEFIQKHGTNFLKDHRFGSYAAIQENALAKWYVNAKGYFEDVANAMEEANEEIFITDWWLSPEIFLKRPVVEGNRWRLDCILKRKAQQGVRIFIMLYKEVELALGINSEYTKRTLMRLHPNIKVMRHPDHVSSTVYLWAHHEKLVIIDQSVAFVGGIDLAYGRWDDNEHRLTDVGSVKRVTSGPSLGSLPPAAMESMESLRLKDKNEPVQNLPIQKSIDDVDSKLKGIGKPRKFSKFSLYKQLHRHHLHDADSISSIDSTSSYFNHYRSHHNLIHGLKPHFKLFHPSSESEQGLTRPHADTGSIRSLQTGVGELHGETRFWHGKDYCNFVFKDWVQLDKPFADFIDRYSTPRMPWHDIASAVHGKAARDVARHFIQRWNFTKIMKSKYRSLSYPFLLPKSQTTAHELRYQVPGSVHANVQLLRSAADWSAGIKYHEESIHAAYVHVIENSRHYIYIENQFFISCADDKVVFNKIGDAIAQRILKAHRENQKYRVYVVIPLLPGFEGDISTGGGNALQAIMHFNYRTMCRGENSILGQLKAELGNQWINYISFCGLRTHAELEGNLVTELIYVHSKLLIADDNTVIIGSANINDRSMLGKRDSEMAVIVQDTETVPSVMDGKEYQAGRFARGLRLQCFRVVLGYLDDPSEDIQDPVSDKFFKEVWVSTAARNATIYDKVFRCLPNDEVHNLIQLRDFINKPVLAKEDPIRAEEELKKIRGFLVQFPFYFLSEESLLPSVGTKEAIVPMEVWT

[4] = system: Calu-1; settings: cited from earlier work
[5] = system: 293-PLD2; settings: cited from earlier work

| Compound | secreted Aβ42 ([1]; N2A cells expressing swAPP treated with FIPI, 6 hours, ELISA of media) | production of Aβ (Aβ40 and Aβ42) ([1]; N2a swAPP cells, FIPI versus vehicle for 6 hours, ELISA, n=6) | PIP2 levels after oAβ42 [2] | PLD isoform selectivity [3] | IC50 [4] [nM] | IC50 [5] [nM] |
| --- | --- | --- | --- | --- | --- | --- |
| O=C(NCCN1CCC(n2c(=O)[nH]c3ccccc32)CC1)c1cc2cc(F)ccc2[nH]1 [FIPI, 5-Fluoro-2-indolyl des-chlorohalopemide] | secrete lower amounts of Aβ42 | decrease production of Aβ | partially rescues oAβ42 induced decrease in PIP2 levels; also recorded: partially rescue PIP2 deficiency | blocks both PLD1 and PLD2 |  |  |
| O=C(NCCN1CCC2(CC1)C(=O)NCN2c1ccccc1)c1cnc2ccccc2c1 [compound 9b, N-(2-(4-oxo-1-phenyl-1,3,8-triazaspiro[4,5]decan-8-yl)ethyl)quinoline-3-carboxamide] |  |  |  |  | 1900 | 90 |
| C[C@@H](CN1CCC(n2c(=O)[nH]c3cc(Br)ccc32)CC1)NC(=O)[C@@H]1C[C@H]1c1ccccc1 [compound 13r, (1R,2R)—N—((S)-1-(4-(5-bromo-2-oxo-2,3-dihydro-1H-benzo[d]imidazol-1-yl)piperidin-1-yl)propan-2-yl)-2-phenylcyclopropanecarboxamide] |  |  |  |  | 3.7 |  |
